What follows are compounds tested against Glucose-6-phosphate dehydrogenase (Bos taurus) (UniProt Q5EM56) (assay: Percent inhibition against bovine adrenal G6PDH (glucose-6-phosphate dehydrogenase) at a concentration of 10 e-5 M).
Chain of Glucose-6-phosphate dehydrogenase (Bos taurus) (Q5EM56 as listed by the source): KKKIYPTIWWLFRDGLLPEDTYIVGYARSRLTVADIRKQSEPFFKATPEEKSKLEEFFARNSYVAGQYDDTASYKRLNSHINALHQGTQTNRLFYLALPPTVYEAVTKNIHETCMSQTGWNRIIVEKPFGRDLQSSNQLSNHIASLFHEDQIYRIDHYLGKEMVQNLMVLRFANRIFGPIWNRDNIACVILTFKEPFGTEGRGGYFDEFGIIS
With C#CCS(=O)(=O)[C@H]1CC[C@@]2(C)C(=CCC3C2CC[C@]2(C)C(=O)CCC32)C1 (stereo not given in full) the inhibition was 20%.
With C=C=CS(=O)(=O)[C@H]1CC[C@@]2(C)C(=CCC3C2CC[C@]2(C)C(=O)CCC32)C1 (stereo not given in full) the inhibition was 15%.
C#CCS[C@H]1CC[C@@]2(C)C(=CCC3C2CC[C@]2(C)C(=O)CCC32)C1 (stereo not given in full) was tested, and the inhibition was 47%.
C=C=C[S+]([O-])[C@H]1CC[C@@]2(C)C(=CCC3C2CC[C@]2(C)C(=O)CCC32)C1 (stereo not given in full) was tested, and the inhibition was < 5%.
In the case of C#CC[S+]([O-])[C@H]1CC[C@@]2(C)C(=CCC3C2CC[C@]2(C)C(=O)CCC32)C1 (stereo not given in full), the inhibition is reported as < 5%.

— ChEMBL document CHEMBL1126227, “The synthesis and reactivity of ,-acetylenic and allenic sulfoxides and sulfones of dehydroepiandrosterone and their reactions with 1-butanethiol and glucose-6-phosphate dehydrogenase” (Bioorg Med Chem Lett, 1992)
